Biological target: G2019S LRRK2 (Homo sapiens, UniProt Q5S007, G2019S)
Assay: DiscoveRx KINOMEscan binding constant (Kd)
Parameters: purchased DiscoveRx (KINOMEscan service); host or cells: E. coli BL21-derived host (T7 phage) or HEK-293
Settings: class symbol
Experimental: Compounds of formulas (II), (I), (I-A), (I-B), (I-C), (I-D), (I-D-1), (I-D-2), (I-E), (I-F), (I-G), (I-H), (I-I), (I-I-1), (I-I-2), (I-J), (I-K), (I-L), (I-M), (I-N), (I-Z-1), (I-Z-2), (I-Z-2-a), (I-Z-2-b), (I-Z-2-c), (I-Z-2-d), (I-Z-3-a), (I-Z-3-b), (I-Z-3-c), or (I-Z-3-d) were tested using DiscoveRx's KINOMEscan™ technology to measure a binding constant (Kd) to wild type and G2019S LRRK2. Kinase-tagged T7 phage strains were prepared in an E. coli host derived from the BL21 strain. E. coli were grown to log-phase and infected with T7 phage and incubated with shaking at 32° C. until lysis. The lysates were centrifuged and filtered to remove cell debris. The remaining kinases were produced in HEK-293 cells and subsequently tagged with DNA for qPCR detection. Streptavidin-coated magnetic beads were treated with biotinylated small molecule ligands for 30 minutes at room temperature to generate affinity resins for kinase assays. The liganded beads were blocked with excess biotin and washed with blocking buffer (SeaBlock (Pierce), 1% BSA, 0.05% Tween 20, 1 mM DTT) to remove unbound ligand and to reduce non-specific binding. Binding reactions were assembled by combining kinases, liganded affinity beads, and test compounds in 1× binding buffer (20% SeaBlock, 0.17×PBS, 0.05% Tween 20, 6 mM DTT). All reactions were performed in polystyrene 96-well plates in a final volume of 0.135 ml. The assay plates were incubated at room temperature with shaking for 1 hour and the affinity beads were washed with wash buffer (lx PBS, 0.05% Tween 20). The beads were then re-suspended in elution buffer (lx PBS, 0.05% Tween 20, 0.5 μM non-biotinylated affinity ligand) and incubated at room temperature with shaking for 30 minutes. The kinase concentration in the eluates was measured by qPCR. An 11-point 3-fold serial dilution of each test compound was prepared in 100% DMSO at 100× final test concentration and subsequently diluted to 1× in the assay (final DMSO concentration=[…]). Most Kds were determined using a compound top concentration=30,000 nM.

Sequence of G2019S LRRK2 (Q5S007 whole entry G2019S): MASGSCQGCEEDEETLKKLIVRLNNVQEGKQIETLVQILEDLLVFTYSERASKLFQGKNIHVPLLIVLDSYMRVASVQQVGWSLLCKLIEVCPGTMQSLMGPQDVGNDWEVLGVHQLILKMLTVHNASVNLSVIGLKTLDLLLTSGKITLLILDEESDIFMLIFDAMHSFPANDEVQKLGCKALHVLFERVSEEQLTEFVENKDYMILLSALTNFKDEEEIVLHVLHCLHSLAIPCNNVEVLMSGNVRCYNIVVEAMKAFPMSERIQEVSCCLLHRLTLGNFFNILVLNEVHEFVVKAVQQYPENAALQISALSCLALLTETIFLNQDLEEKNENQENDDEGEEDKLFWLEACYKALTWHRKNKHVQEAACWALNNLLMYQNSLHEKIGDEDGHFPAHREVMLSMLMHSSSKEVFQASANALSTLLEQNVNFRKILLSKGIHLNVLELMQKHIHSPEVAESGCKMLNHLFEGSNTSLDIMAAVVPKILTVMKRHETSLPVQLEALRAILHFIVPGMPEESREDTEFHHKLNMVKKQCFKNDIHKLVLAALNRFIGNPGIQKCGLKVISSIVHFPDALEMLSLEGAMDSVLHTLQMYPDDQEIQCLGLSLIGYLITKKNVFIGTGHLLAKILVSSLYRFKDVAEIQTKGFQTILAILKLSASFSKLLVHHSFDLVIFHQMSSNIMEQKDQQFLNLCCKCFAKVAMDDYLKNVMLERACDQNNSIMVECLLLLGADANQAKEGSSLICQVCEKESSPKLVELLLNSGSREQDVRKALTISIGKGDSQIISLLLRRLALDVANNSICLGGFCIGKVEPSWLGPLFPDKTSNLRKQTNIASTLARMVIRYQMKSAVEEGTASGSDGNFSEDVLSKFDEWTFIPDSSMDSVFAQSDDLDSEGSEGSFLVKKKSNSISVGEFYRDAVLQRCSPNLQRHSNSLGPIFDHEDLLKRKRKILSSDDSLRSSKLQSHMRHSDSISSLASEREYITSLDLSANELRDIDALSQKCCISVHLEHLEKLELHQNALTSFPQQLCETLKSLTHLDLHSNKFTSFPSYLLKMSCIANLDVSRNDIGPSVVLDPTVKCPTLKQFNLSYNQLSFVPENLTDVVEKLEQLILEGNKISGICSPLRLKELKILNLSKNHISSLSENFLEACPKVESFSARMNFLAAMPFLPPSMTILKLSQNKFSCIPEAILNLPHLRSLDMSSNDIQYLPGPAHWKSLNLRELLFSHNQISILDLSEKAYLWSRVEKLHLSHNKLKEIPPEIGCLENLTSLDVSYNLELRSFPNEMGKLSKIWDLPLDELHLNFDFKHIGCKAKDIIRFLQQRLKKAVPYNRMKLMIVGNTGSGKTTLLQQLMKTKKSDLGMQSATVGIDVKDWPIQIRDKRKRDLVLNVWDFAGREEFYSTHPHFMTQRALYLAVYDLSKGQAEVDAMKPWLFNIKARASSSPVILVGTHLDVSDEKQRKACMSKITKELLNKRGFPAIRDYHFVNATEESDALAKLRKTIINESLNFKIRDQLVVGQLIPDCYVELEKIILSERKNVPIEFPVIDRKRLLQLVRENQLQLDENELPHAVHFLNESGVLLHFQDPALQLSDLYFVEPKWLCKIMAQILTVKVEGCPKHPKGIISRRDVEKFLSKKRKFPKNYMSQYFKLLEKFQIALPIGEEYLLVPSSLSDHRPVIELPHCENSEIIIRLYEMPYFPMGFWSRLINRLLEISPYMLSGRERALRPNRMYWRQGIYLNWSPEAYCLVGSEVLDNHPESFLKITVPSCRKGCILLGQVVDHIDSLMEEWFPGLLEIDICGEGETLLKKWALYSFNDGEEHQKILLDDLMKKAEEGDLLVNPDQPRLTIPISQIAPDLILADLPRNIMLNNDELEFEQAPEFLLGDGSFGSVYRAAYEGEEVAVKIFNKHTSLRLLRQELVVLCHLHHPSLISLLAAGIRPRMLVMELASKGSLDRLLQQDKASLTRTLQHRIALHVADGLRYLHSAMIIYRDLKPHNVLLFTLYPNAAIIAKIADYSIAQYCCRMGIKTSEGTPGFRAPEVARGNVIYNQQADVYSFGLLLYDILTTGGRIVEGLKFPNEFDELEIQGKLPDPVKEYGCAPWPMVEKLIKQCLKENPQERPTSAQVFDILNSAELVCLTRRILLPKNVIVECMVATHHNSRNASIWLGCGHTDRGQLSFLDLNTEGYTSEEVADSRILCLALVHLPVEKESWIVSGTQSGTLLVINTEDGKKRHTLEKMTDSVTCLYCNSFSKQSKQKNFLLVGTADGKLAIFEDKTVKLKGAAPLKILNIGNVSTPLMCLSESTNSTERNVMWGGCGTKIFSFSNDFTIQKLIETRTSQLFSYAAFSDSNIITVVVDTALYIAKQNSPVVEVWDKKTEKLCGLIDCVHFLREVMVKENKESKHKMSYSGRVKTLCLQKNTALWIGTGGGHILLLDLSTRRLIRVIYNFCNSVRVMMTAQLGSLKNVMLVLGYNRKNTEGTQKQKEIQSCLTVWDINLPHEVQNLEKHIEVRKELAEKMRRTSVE

Row | Compound | Kd
1 | CC(C)Oc1ccc2c(c1F)/C(=C/c1cnc(N3CCOCC3)[nH]1)C(=O)N2 [Compound 38, (3Z)-4-fluoro-5-isopropoxy-3-[(2-morpholino-1H-imidazol-5-yl)methylene]indolin-2-one] | ≥ 1 µM
2 | CCc1nnc(/C=C2\C(=O)Nc3ccc(OC)cc32)[nH]1 [Compound 25, (3Z)-3-[(5-ethyl-4H-1,2,4-triazol-3-yl)methylene]-5-methoxy-indolin-2-one] | ≥ 1 µM

Same assay, conditions: numeric value

Row | Compound | Kd
3 | C/C(=C1/C(=O)Nc2cc(F)c(OC(C)C)cc21)c1cnc(N2CCOCC2)[nH]1 [Compound 42, (3Z)-6-fluoro-5-isopropoxy-3-[1-(2-morpholino-1H-imidazol-5-yl)ethylidene]indolin-2-one] | 0.057 µM
4 | CC(C)Oc1ccc2c(n1)/C(=C/c1cnc(C3CCOCC3)[nH]1)C(=O)N2 [Compound 46, (3Z)-5-isopropoxy-3-[(2-tetrahydropyran-4-yl-1H-imidazol-5-yl)methylene]-1H-pyrrolo[3,2-b]pyridin-2-one] | 0.25 µM
5 | CC(C)Oc1ccc2c(c1)/C(=C/c1cnc(N3CCOCC3)[nH]1)C(=O)N2 [Compound 27, (3Z)-5-isopropoxy-3-[(2-morpholino-1H-imidazol-5-yl)methylene]indolin-2-one] | 0.0155 µM
6 | CCc1ccc2c(c1)/C(=C/c1cnc(C3CCOCC3)[nH]1)C(=O)N2 [Compound 29, (3Z)-5-ethyl-3-[(2-tetrahydropyran-4-yl-1H-imidazol-5-yl)methylene]indolin-2-one] | 0.054 µM
7 | CC(C)Oc1cc2c(cc1F)NC(=O)/C2=C\c1cnc(C2CCN(CCF)CC2)[nH]1 [Compound 43, (3Z)-6-fluoro-3-[[2-[1-(2-fluoroethyl)-4-piperidyl]-1H-imidazol-5-yl]methylene]-5-isopropoxy-indolin-2-one] | 0.034 µM
8 | CCN1CCN(c2ncc(/C=C3\C(=O)Nc4cc(F)c(OC(C)C)cc43)[nH]2)CC1 [Compound 44, (3Z)-3-[[2-(4-ethylpiperazin-1-yl)-1H-imidazol-5-yl]methylene]-6-fluoro-5-isopropoxy-indolin-2-one] | 0.041 µM
9 | CC(C)Oc1ccc2c(c1)/C(=C/c1ncc(C3CCOCC3)[nH]1)C(=O)N2 [Compound 39, (3Z)-5-isopropoxy-3-[(5-tetrahydropyran-4-yl-1H-imidazol-2-yl)methylene]indolin-2-one] | 0.123 µM
10 | CC(C)Oc1ccc2c(c1)/C(=C/c1nnc(C(C)C)[nH]1)C(=O)N2 [Compound 26, (3Z)-5-isopropoxy-3-[(5-isopropyl-4H-1,2,4-triazol-3-yl)methylene]indolin-2-one] | 12.5 µM
11 | O=C1Nc2ccc(OCCF)cc2/C1=C/c1cnc(C2CCOCC2)[nH]1 [Compound 34, (3Z)-5-(2-fluoroethoxy)-3-[(2-tetrahydropyran-4-yl-1H-imidazol-5-yl)methylene]indolin-2-one] | 0.0475 µM
12 | CC(C)Oc1ccc2c(c1)/C(=C/c1cnc(C(C)C)[nH]1)C(=O)N2 [Compound 21, (3Z)-5-isopropoxy-3-[(2-isopropyl-1H-imidazol-5-yl)methylene]indolin-2-one] | 0.0165 µM
13 | CC(C)Oc1ccc2c(c1)/C(=C/c1cnc(CN3CCOCC3)[nH]1)C(=O)N2 [Compound 23, (3Z)-5-isopropoxy-3-[[2-(morpholinomethyl)-1H-imidazol-5-yl]methylene]indolin-2-one] | 0.42 µM
14 | C/C(=C1/C(=O)Nc2ccc(OC(C)C)cc21)c1cnc(N2CCOCC2)[nH]1 [Compound 40, (3Z)-5-isopropoxy-3-[1-(2-morpholino-1H-imidazol-5-yl)ethylidene]indolin-2-one] | 0.022 µM
15 | CC(C)Oc1ccc2c(c1)/C(=C/c1cnc(C3CCN(CCF)CC3)[nH]1)C(=O)N2 [Compound 31, (3Z)-3-[[2-[1-(2-fluoroethyl)-4-piperidyl]-1H-imidazol-5-yl]methylene]-5-isopropoxy-indolin-2-one] | 0.043 µM
16 | CC(C)Oc1cc2c(cc1F)NC(=O)/C2=C\c1cnc(N2CCOCC2)[nH]1 [Compound 37, (3Z)-6-fluoro-5-isopropoxy-3-[(2-morpholino-1H-imidazol-5-yl)methylene]indolin-2-one] | 0.024 µM
17 | CC(C)Cc1ncc(/C=C2\C(=O)Nc3ccc(OC(C)C)cc32)[nH]1 [Compound 22, (3Z)-3-[(2-isobutyl-1H-imidazol-5-yl)methylene]-5-isopropoxy-indolin-2-one] | 0.0325 µM
18 | COCCc1ncc(/C=C2\C(=O)Nc3ccc(OC)cc32)[nH]1 [Compound 24, (3Z)-5-methoxy-3-[[2-(2-methoxyethyl)-1H-imidazol-5-yl]methylene]indolin-2-one] | 0.45 µM
19 | CC(C)Oc1cc2c(cn1)NC(=O)/C2=C\c1cnc(C2CCOCC2)[nH]1 [Compound 45, (3Z)-5-isopropoxy-3-[(2-tetrahydropyran-4-yl-1H-imidazol-5-yl)methylene]-1H-pyrrolo[2,3-c]pyridin-2-one] | 0.26 µM
20 | CC(C)Oc1cc2c(cc1F)NC(=O)/C2=C\c1cnc(C2CCOCC2)[nH]1 [Compound 41, (3Z)-6-fluoro-5-isopropoxy-3-[(2-tetrahydropyran-4-yl-1H-imidazol-5-yl)methylene]indolin-2-one] | 0.025 µM
21 | COc1ccc2c(c1)/C(=C/c1cnc(-c3c(F)cccc3F)[nH]1)C(=O)N2 [Compound 20, (3Z)-3-[[2-(2,6-difluorophenyl)-1H-imidazol-5-yl]methylene]-5-methoxy-indolin-2-one] | 0.15 µM
22 | CC(C)Oc1ccc2c(c1)/C(=C/c1cnc(C3CCOCC3)[nH]1)C(=O)N2 [Compound 30, (3Z)-5-isopropoxy-3-[(2-tetrahydropyran-4-yl-1H-imidazol-5-yl)methylene]indolin-2-one] | 0.028 µM
23 | CCc1nnc(/C=C2\C(=O)Nc3ccc(OC)cc32)[nH]1 [Compound 25, (3Z)-3-[(5-ethyl-4H-1,2,4-triazol-3-yl)methylene]-5-methoxy-indolin-2-one] | > 30 µM
24 | O=C1Nc2ccc(O)cc2/C1=C/c1cnc(C2CCOCC2)[nH]1 [Compound 28, (3Z)-5-hydroxy-3-[(2-tetrahydropyran-4-yl-1H-imidazol-5-yl)methylene]indolin-2-one] | 0.068 µM
25 | CC(C)Oc1ccc2c(c1)/C(=C/c1cnc(N(C)C)[nH]1)C(=O)N2 [Compound 35, (3Z)-3-[[2-(dimethylamino)-1H-imidazol-5-yl]methylene]-5-isopropoxy-indolin-2-one] | 0.032 µM
26 | CC(C)Oc1cc(F)c2c(c1)/C(=C/c1cnc(N3CCOCC3)[nH]1)C(=O)N2 [Compound 36, (3Z)-7-fluoro-5-isopropoxy-3-[(2-morpholino-1H-imidazol-5-yl)methylene]indolin-2-one] | 0.067 µM
27 | O=C1Nc2ccc(Cl)cc2/C1=C/c1cnc(C2CCN(CCF)CC2)[nH]1 [Compound 33, (3Z)-5-chloro-3-[[2-[1-(2-fluoroethyl)-4-piperidyl]-1H-imidazol-5-yl]methylene]indolin-2-one] | 0.15 µM
28 | O=C1Nc2ccc(Cl)cc2/C1=C/c1cnc(C2CCOCC2)[nH]1 [Compound 32, (3Z)-5-chloro-3-[(2-tetrahydropyran-4-yl-1H-imidazol-5-yl)methylene]indolin-2-one] | 0.059 µM

From patent US20140205537A1, “LRRK2 INHIBITORS” (ZENOBIA THERAPEUTICS, INC., priority 2011, published 2014)
